Laboratory results: publication PMC10408569, “Recruitment of hexahydroquinoline as anticancer scaffold targeting inhibition of wild and mutants EGFR (EGFR^WT, EGFR^T790M, and EGFR^L858R)” (Journal of Enzyme Inhibition and Medicinal Chemistry, 2023)

Key:
HCT-15 = experiment: NCI-60 anticancer screening (SRB); type: cell-based; settings: Homo sapiens; HCT-15, colon cancer; one dose 10 μM; read-out: Growth Inhibition Percentage (GI %)
ACHN = experiment: NCI-60 anticancer screening (SRB); type: cell-based; settings: Homo sapiens, renal cancer, one dose 10 μM, read-out: Growth Inhibition Percentage (GI %)
HOP-62 = experiment: NCI-60 anticancer screening (SRB); type: cell-based; settings: Homo sapiens; HOP-62, NSC lung cancer; one dose 10 μM; read-out: Growth Inhibition Percentage (GI %)
NCI-H522 = experiment: NCI-60 anticancer screening (SRB); type: cell-based; settings: Homo sapiens; NCI-H522, NSC lung cancer; one dose 10 μM; read-out: Growth Inhibition Percentage (GI %)
OVCAR-4 = experiment: NCI-60 anticancer screening (SRB); type: cell-based; settings: Homo sapiens; OVCAR-4, ovarian cancer; one dose 10 μM; read-out: Growth Inhibition Percentage (GI %)
RXF 393 = experiment: NCI-60 anticancer screening (SRB); type: cell-based; settings: Homo sapiens; RXF 393, renal cancer; one dose 10 μM; read-out: Growth Inhibition Percentage (GI %)
T-47D = experiment: NCI-60 anticancer screening (SRB); type: cell-based; settings: Homo sapiens, T47D, breast cancer, one dose 10 μM, read-out: Growth Inhibition Percentage (GI %)
SW-620 = experiment: NCI-60 anticancer screening (SRB); type: cell-based; settings: Homo sapiens; SW-620, colon cancer; one dose 10 μM; read-out: Growth Inhibition Percentage (GI %)
MDA-MB-468 = experiment: NCI-60 anticancer screening (SRB); type: cell-based; settings: Homo sapiens; MDA-MB-468, breast cancer; one dose 10 μM; read-out: Growth Inhibition Percentage (GI %)
K-562 = experiment: NCI-60 anticancer screening (SRB); type: cell-based; settings: Homo sapiens, K562; K-562, leukemia; one dose 10 μM; read-out: Growth Inhibition Percentage (GI %)
MDA-MB-435 = experiment: NCI-60 anticancer screening (SRB); type: cell-based; settings: Homo sapiens; MDA-MB-435, melanoma; one dose 10 μM; read-out: Growth Inhibition Percentage (GI %)
RPMI-8226 = experiment: NCI-60 anticancer screening (SRB); type: cell-based; settings: Homo sapiens; RPMI-8226, leukemia; one dose 10 μM; read-out: Growth Inhibition Percentage (GI %)
HL-60(TB) = experiment: NCI-60 anticancer screening (SRB); type: cell-based; settings: Homo sapiens, leukemia, one dose 10 μM, read-out: Growth Inhibition Percentage (GI %)
OVCAR-8 = experiment: NCI-60 anticancer screening (SRB); type: cell-based; settings: Homo sapiens; OVCAR-8, ovarian cancer; one dose 10 μM; read-out: Growth Inhibition Percentage (GI %)
NCI-H322M = experiment: NCI-60 anticancer screening (SRB); type: cell-based; settings: Homo sapiens, NSC lung cancer, one dose 10 μM, read-out: Growth Inhibition Percentage (GI %)
NCI 60 cancer cell lines = experiment: NCI-60 anticancer screening (SRB), whole panel; type: cell-based, human; settings: mean across the NCI-60 panel; one dose 10 μM
LOX IMVI = experiment: NCI-60 anticancer screening (SRB); type: cell-based; settings: Homo sapiens, melanoma, one dose 10 μM, read-out: Growth Inhibition Percentage (GI %)
SK-MEL-2 = experiment: NCI-60 anticancer screening (SRB); type: cell-based; settings: Homo sapiens; SK-MEL-2, melanoma; one dose 10 μM; read-out: Growth Inhibition Percentage (GI %)
HCC-2998 = experiment: NCI-60 anticancer screening (SRB); type: cell-based; settings: Homo sapiens; HCC-2998, colon cancer; one dose 10 μM; read-out: Growth Inhibition Percentage (GI %)
SK-MEL-5 = experiment: NCI-60 anticancer screening (SRB); type: cell-based; settings: Homo sapiens; SK-MEL-5, melanoma; one dose 10 μM; read-out: Growth Inhibition Percentage (GI %)
UACC-257 = experiment: NCI-60 anticancer screening (SRB); type: cell-based; settings: Homo sapiens; UACC-257, melanoma; one dose 10 μM; read-out: Growth Inhibition Percentage (GI %)
SR = experiment: NCI-60 anticancer screening (SRB); type: cell-based; settings: Homo sapiens, leukemia, one dose 10 μM, read-out: Growth Inhibition Percentage (GI %)
SNB-19 = experiment: NCI-60 anticancer screening (SRB); type: cell-based; settings: Homo sapiens; SNB-19, CNS cancer; one dose 10 μM; read-out: Growth Inhibition Percentage (GI %)
OVCAR-3 = experiment: NCI-60 anticancer screening (SRB); type: cell-based; settings: Homo sapiens; OVCAR-3, ovarian cancer; one dose 10 μM; read-out: Growth Inhibition Percentage (GI %)
MOLT-4 = experiment: NCI-60 anticancer screening (SRB); type: cell-based; settings: Homo sapiens; MOLT-4, leukemia; one dose 10 μM; read-out: Growth Inhibition Percentage (GI %)
SNB-75 = experiment: NCI-60 anticancer screening (SRB); type: cell-based; settings: Homo sapiens; SNB-75, CNS cancer; one dose 10 μM; read-out: Growth Inhibition Percentage (GI %)
SF-268 = experiment: NCI-60 anticancer screening (SRB); type: cell-based; settings: Homo sapiens; SF-268, CNS cancer; one dose 10 μM; read-out: Growth Inhibition Percentage (GI %)
NCI-H226 = experiment: NCI-60 anticancer screening (SRB); type: cell-based; settings: Homo sapiens; NCI-H226, NSC lung cancer; one dose 10 μM; read-out: Growth Inhibition Percentage (GI %)
KM 12 = experiment: NCI-60 anticancer screening (SRB); type: cell-based; settings: Homo sapiens, KM12; KM 12, colon cancer; one dose 10 μM; read-out: Growth Inhibition Percentage (GI %)
OVCAR-5 = experiment: NCI-60 anticancer screening (SRB); type: cell-based; settings: Homo sapiens; OVCAR-5, ovarian cancer; one dose 10 μM; read-out: Growth Inhibition Percentage (GI %)
SK-OV-3 = experiment: NCI-60 anticancer screening (SRB); type: cell-based; settings: Homo sapiens; SK-OV-3, ovarian cancer; one dose 10 μM; read-out: Growth Inhibition Percentage (GI %)
A549/ATCC = experiment: NCI-60 anticancer screening (SRB); type: cell-based; settings: Homo sapiens; A549/ATCC, NSC lung cancer; one dose 10 μM; read-out: Growth Inhibition Percentage (GI %)

SMILES	inhibition at 10 µM (HCT-15) [%]	inhibition at 10 µM (ACHN) [%]	inhibition at 10 µM (HOP-62) [%]	inhibition at 10 µM (NCI-H522) [%]	inhibition at 10 µM (OVCAR-4) [%]	inhibition at 10 µM (RXF 393) [%]	inhibition at 10 µM (T-47D) [%]	inhibition at 10 µM (SW-620) [%]	inhibition at 10 µM (MDA-MB-468) [%]	inhibition at 10 µM (K-562) [%]	inhibition at 10 µM (MDA-MB-435) [%]	inhibition at 10 µM (RPMI-8226) [%]	inhibition at 10 µM (HL-60(TB)) [%]	inhibition at 10 µM (OVCAR-8) [%]	inhibition at 10 µM (NCI-H322M) [%]	GI % mean (NCI 60 cancer cell lines)	inhibition at 10 µM (LOX IMVI) [%]	inhibition at 10 µM (SK-MEL-2) [%]	inhibition at 10 µM (HCC-2998) [%]	inhibition at 10 µM (SK-MEL-5) [%]	also measured
CCOC(=O)C1=C(N)N(c2ccc(Cl)cc2)C2=C(C(=O)CC(C)(C)C2)C1c1ccccc1OC (racemic) [6i, (±)-Ethyl 2-amino-1–(4-chlorophenyl)-4–(2-methoxyphenyl)-7,7-dimethyl-5-oxo-1,4,5,6,7,8-hexahydroquinoline-3-carboxylate]	59	38	< 10	43	58	< 10	40	23	39	66	51	73	69	12	15	36%	37	15	38	29	inhibition at 10 µM (UACC-257): 44%; melting point: 228 to 230 °C; inhibition at 10 µM (SR): 64%; inhibition at 10 µM (SNB-19): 28%; inhibition at 10 µM (OVCAR-3): 19%; inhibition at 10 µM (MOLT-4): 89%; inhibition at 10 µM (SNB-75): 18%; inhibition at 10 µM (SF-268): 27%; inhibition at 10 µM (NCI-H226): 30%; inhibition at 10 µM (KM 12): 54%; inhibition at 10 µM (OVCAR-5): 15%; inhibition at 10 µM (SK-OV-3): < 10%; inhibition at 10 µM (A549/ATCC): 52%
CCOC(=O)C1=C(N)N(c2ccc(C)cc2)C2=C(C(=O)CC(C)(C)C2)C1c1ccc([N+](=O)[O-])cc1 (racemic) [8j, (±)-Ethyl 2-amino-7,7-dimethyl-1–(4-methylphenyl)-4–(4-nitrophenyl)-5-oxo-1,4,5,6,7,8-hexahydroquinoline-3-carboxylate]	< 10	< 10	< 10	< 10	< 10	< 10	< 10	< 10	< 10	< 10	< 10	< 10	< 10	< 10	< 10	- ((-) = GI % mean less than 10)	< 10	< 10	< 10	< 10	inhibition at 10 µM (UACC-257): < 10%; melting point: 270 to 272 °C; inhibition at 10 µM (SR): < 10%; inhibition at 10 µM (SNB-19): < 10%; inhibition at 10 µM (OVCAR-3): < 10%; inhibition at 10 µM (MOLT-4): < 10%; inhibition at 10 µM (SNB-75): < 10%; inhibition at 10 µM (SF-268): < 10%; inhibition at 10 µM (NCI-H226): < 10%; inhibition at 10 µM (KM 12): < 10%; inhibition at 10 µM (OVCAR-5): < 10%; inhibition at 10 µM (SK-OV-3): < 10%; inhibition at 10 µM (A549/ATCC): < 10%
CCOC(=O)C1=C(N)N(c2ccc(Cl)cc2)C2=C(C(=O)CC(C)(C)C2)C1c1ccccn1 (racemic) [12c, (±)-Ethyl 2-amino-1–(4-chlorophenyl)-7,7-dimethyl-5-oxo-4-(pyridine-2-yl)-1,4,5,6,7,8-hexahydroquinoline-3-carboxylate]	12	< 10	< 10	11	< 10	< 10	< 10	< 10	< 10	< 10	< 10	< 10	< 10	< 10	< 10	- ((-) = GI % mean less than 10)	< 10	< 10	< 10	13	inhibition at 10 µM (UACC-257): < 10%; melting point: 256 to 258 °C; inhibition at 10 µM (SR): < 10%; inhibition at 10 µM (SNB-19): < 10%; inhibition at 10 µM (OVCAR-3): < 10%; inhibition at 10 µM (MOLT-4): < 10%; inhibition at 10 µM (SNB-75): < 10%; inhibition at 10 µM (SF-268): < 10%; inhibition at 10 µM (NCI-H226): < 10%; inhibition at 10 µM (KM 12): < 10%; inhibition at 10 µM (OVCAR-5): < 10%; inhibition at 10 µM (SK-OV-3): < 10%; inhibition at 10 µM (A549/ATCC): < 10%
